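At the GI50, growth is halved. The concentration for full growth arrest is given as TGI.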
Experiments:
Assay in all cases: NCI anticancer screen, dose series, 384-well format
SW-620 colon = test system: SW-620 colon
OVCAR-3 ovarian = test system: OVCAR-3 ovarian
HS 578T breast = test system: HS 578T breast
SK-OV-3 ovarian = test system: SK-OV-3 ovarian
SK-MEL-5 melanoma = test system: SK-MEL-5 melanoma
RPMI-8226 leukemia = test system: RPMI-8226 leukemia
HL-60(TB) leukemia = test system: HL-60(TB) leukemia
SF-268 CNS = test system: SF-268 CNS
NCI-H522 lung = test system: NCI-H522 lung
UO-31 renal = test system: UO-31 renal
DU-145 prostate = test system: DU-145 prostate
NCI-H226 lung = test system: NCI-H226 lung
HOP-62 NSCLC = test system: HOP-62 NSCLC
ACHN renal = test system: ACHN renal
PC-3 prostate = test system: PC-3 prostate
U251 glioblastoma = test system: U251 glioblastoma
IGROV1 ovarian = test system: IGROV1 ovarian
A549 NSCLC = test system: A549 NSCLC
NCI-H23 lung = test system: NCI-H23 lung
M14 melanoma = test system: M14 melanoma
SNB-19 CNS = test system: SNB-19 CNS
UACC-62 melanoma = test system: UACC-62 melanoma
786-0 renal = test system: 786-0 renal
COLO 205 colon = test system: COLO 205 colon
RXF 393 renal = test system: RXF 393 renal
SR leukemia = test system: SR leukemia
MDA-MB-435 melanoma = test system: MDA-MB-435 melanoma
HT29 colon = test system: HT29 colon
NCI/ADR-RES ovarian = test system: NCI/ADR-RES ovarian
T-47D breast = test system: T-47D breast
EKVX NSCLC = test system: EKVX NSCLC
CAKI-1 renal = test system: CAKI-1 renal
HOP-92 NSCLC = test system: HOP-92 NSCLC
MDA-MB-231 breast = test system: MDA-MB-231 breast
CCRF-CEM leukemia = test system: CCRF-CEM leukemia
MDA-MB-468 breast = test system: MDA-MB-468 breast
KM12 colon = test system: KM12 colon
SF-539 CNS = test system: SF-539 CNS
SF-295 CNS = test system: SF-295 CNS
UACC-257 melanoma = test system: UACC-257 melanoma
SNB-75 CNS = test system: SNB-75 CNS
OVCAR-4 ovarian = test system: OVCAR-4 ovarian
MOLT-4 leukemia = test system: MOLT-4 leukemia
HCT-15 colon = test system: HCT-15 colon
NCI-H322M lung = test system: NCI-H322M lung
HCC-2998 colon = test system: HCC-2998 colon
K-562 leukemia = test system: K-562 leukemia
NCI-H460 NSCLC = test system: NCI-H460 NSCLC
BT-549 breast = test system: BT-549 breast
MCF7 breast = test system: MCF7 breast
A498 renal = test system: A498 renal
SN12C renal = test system: SN12C renal
OVCAR-8 ovarian = test system: OVCAR-8 ovarian
TK-10 renal = test system: TK-10 renal
OVCAR-5 ovarian = test system: OVCAR-5 ovarian
SK-MEL-28 melanoma = test system: SK-MEL-28 melanoma
LOX IMVI melanoma = test system: LOX IMVI melanoma
MALME-3M melanoma = test system: MALME-3M melanoma

CNC(=O)CN1CCC(Oc2cc3c(Nc4cccc(Cl)c4F)ncnc3cc2OC)CC1
GI50 (SW-620 colon): 13.9 µM | TGI (SW-620 colon): 27.4 µM | GI50 (OVCAR-3 ovarian): 1.95 µM | TGI (OVCAR-3 ovarian): 14.8 µM | GI50 (HS 578T breast): 4.07 µM | TGI (HS 578T breast): 16.1 µM | GI50 (SK-OV-3 ovarian): 0.383 µM | TGI (SK-OV-3 ovarian): 11.3 µM | GI50 (SK-MEL-5 melanoma): 10.2 µM | TGI (SK-MEL-5 melanoma): 21.9 µM | GI50 (RPMI-8226 leukemia): 9.35 µM | TGI (RPMI-8226 leukemia): 21.5 µM | GI50 (HL-60(TB) leukemia): 18.9 µM | TGI (HL-60(TB) leukemia): 33 µM | GI50 (SF-268 CNS): 9.9 µM | TGI (SF-268 CNS): 36.4 µM | GI50 (NCI-H522 lung): 0.0493 µM | TGI (NCI-H522 lung): 11.6 µM | GI50 (UO-31 renal): 12.4 µM | TGI (UO-31 renal): > 100 µM | GI50 (DU-145 prostate): 3.88 µM | TGI (DU-145 prostate): 43.4 µM | GI50 (NCI-H226 lung): 11.1 µM | TGI (NCI-H226 lung): 29.9 µM | GI50 (HOP-62 NSCLC): 8.39 µM | TGI (HOP-62 NSCLC): 27.5 µM | GI50 (ACHN renal): 0.0298 µM | TGI (ACHN renal): 10.7 µM | GI50 (PC-3 prostate): 14.7 µM | TGI (PC-3 prostate): 35 µM | GI50 (U251 glioblastoma): 17.2 µM | TGI (U251 glioblastoma): 36.3 µM | GI50 (IGROV1 ovarian): 0.068 µM | TGI (IGROV1 ovarian): 1.55 µM | GI50 (A549 NSCLC): 2.31 µM | TGI (A549 NSCLC): 17.7 µM | GI50 (NCI-H23 lung): 10.7 µM | TGI (NCI-H23 lung): 30.8 µM | GI50 (M14 melanoma): 15.3 µM | TGI (M14 melanoma): 29.1 µM | GI50 (SNB-19 CNS): 14.3 µM | TGI (SNB-19 CNS): 45.2 µM | GI50 (UACC-62 melanoma): 13.9 µM | TGI (UACC-62 melanoma): 27.1 µM | GI50 ([…]-0 renal): 5.7 µM | TGI (786-0 renal): 24.6 µM | GI50 (COLO 205 colon): 15.3 µM | TGI (COLO 205 colon): 28.7 µM | GI50 (RXF 393 renal): 10.1 µM | TGI (RXF 393 renal): 25.5 µM | GI50 (SR leukemia): 15.1 µM | TGI (SR leukemia): 29.3 µM | GI50 (MDA-MB-435 melanoma): 26.6 µM | TGI (MDA-MB-435 melanoma): 83.5 µM | GI50 (HT29 colon): 11.3 µM | TGI (HT29 colon): 24.6 µM | GI50 (NCI/ADR-RES ovarian): 12.9 µM | TGI (NCI/ADR-RES ovarian): 29.4 µM | GI50 (T-47D breast): 0.38 µM | TGI (T-47D breast): 6.28 µM | GI50 (EKVX NSCLC): 0.0357 µM | TGI (EKVX NSCLC): 4.33 µM | GI50 (CAKI-1 renal): 0.915 µM | TGI (CAKI-1 renal): 13.5 µM | GI50 (HOP-92 NSCLC): 4.39 µM | TGI (HOP-92 NSCLC): 20.2 µM | GI50 (MDA-MB-231 breast): 4.2 µM | TGI (MDA-MB-231 breast): 18.1 µM | GI50 (CCRF-CEM leukemia): 15.3 µM | TGI (CCRF-CEM leukemia): 29.9 µM | GI50 (MDA-MB-468 breast): < 0.01 µM | GI50 (KM12 colon): 18.7 µM | TGI (KM12 colon): 35.6 µM | GI50 (SF-539 CNS): 12.4 µM | TGI (SF-539 CNS): 25.5 µM | GI50 (SF-295 CNS): 14.8 µM | TGI (SF-295 CNS): 28.3 µM | GI50 (UACC-257 melanoma): 14.6 µM | TGI (UACC-257 melanoma): 28.1 µM | GI50 (SNB-75 CNS): 9.75 µM | TGI (SNB-75 CNS): 34.1 µM | GI50 (OVCAR-4 ovarian): 3.28 µM | TGI (OVCAR-4 ovarian): 24.3 µM | GI50 (MOLT-4 leukemia): 14.1 µM | TGI (MOLT-4 leukemia): 27.2 µM | GI50 (HCT-15 colon): 10.8 µM | TGI (HCT-15 colon): 22.8 µM | GI50 (NCI-H322M lung): < 0.01 µM | TGI (NCI-H322M lung): 1.89 µM | GI50 (HCC-2998 colon): 14.9 µM | TGI (HCC-2998 colon): 28.4 µM | GI50 (K-562 leukemia): 10.9 µM | TGI (K-562 leukemia): 23.3 µM | GI50 (NCI-H460 NSCLC): 16.3 µM | TGI (NCI-H460 NSCLC): 34.1 µM | GI50 (BT-549 breast): 11.7 µM | TGI (BT-549 breast): 27.1 µM | GI50 (MCF7 breast): 10.3 µM | TGI (MCF7 breast): 24.9 µM | GI50 (A498 renal): 12.4 µM | TGI (A498 renal): 27.2 µM | GI50 (SN12C renal): 0.426 µM | TGI (SN12C renal): 9.66 µM | GI50 (OVCAR-8 ovarian): 13.1 µM | TGI (OVCAR-8 ovarian): 43.2 µM | GI50 (TK-10 renal): 0.0537 µM | TGI (TK-10 renal): 13 µM | GI50 (OVCAR-5 ovarian): 0.906 µM | TGI (OVCAR-5 ovarian): 10.9 µM | GI50 (SK-MEL-28 melanoma): 13.9 µM | TGI (SK-MEL-28 melanoma): 27 µM | GI50 (LOX IMVI melanoma): 10.7 µM | TGI (LOX IMVI melanoma): 22.6 µM | GI50 (MALME-3M melanoma): 12.8 µM | TGI (MALME-3M melanoma): 26.7 µM

From PubChem BioAssay (NCI)
